# Test system: 5-HT levels in ventral hippocampus
# Assay: Microdialysis of brain serotonin (5-HT) levels in ventral hippocampus of rats
# Assay type: in vivo, rat
# Conditions: loxapine alone; male Wistar rats
# Experimental: Male albino rats of a Wistar-derived strain (285-320 g; Harlan, Zeist, The Netherlands) were used for the experiments. Upon surgery, rats were housed individually in plastic cages (35×35×40 cm), and had free access to food and water. Animals were kept on a 12 h light schedule (light on 7:00 a.m.). The experiments are concordant with the declarations of Helsinki and were approved by the animal care committee of the faculty of mathematics and natural science of the University of Groningen.
# Preceding surgery rats were anaesthetised using isoflurane (O2/N2O; 300/300 ml/min). Lidocaine-HCl, 10% (m/v) was used for local anaesthesia.
# Rats were allowed to recover for at least 24 h. […]
# Twenty-μl microdialysate samples were injected via an autoinjector (CMA/200 refrigerated microsampler, CMA, Sweden) onto a 100×2.0 mm C18 Hypersil 3 μm column (Bester, Amstelveen, the Netherlands) and separated with a mobile phase consisting of 5 g/L di-ammoniumsulfate, 500 mg/L EDTA, 50 mg/L heptane sulphonic acid, 4% methanol v/v, and 30 μl/L of triethylamine, pH 4.65 at a flow of 0.4 ml/min (Shimadzu LC-10 AD). 5-HT was detected amperometrically at a glassy carbon electrode at 500 mV vs Ag/AgCl (Antec Leyden, Leiden, The Netherlands). […]
compound,measurement,value
CN1CCN(C2=Nc3ccccc3Oc3ccc(Cl)cc32)CC1 [loxapine],"effect on 5-HT levels in ventral hippocampus (microdialysis, % of control level)",no significant effect

# From patent publication US20070042014A1, “Combination of a serotonin reuptake inhibitor and loxapine” (H. Lundbeck A/S, priority 2003, published 2007)
